Legend:
MUC1-fs = test: High-content imaging assay of MUC1-fs total cytoplasm intensity in P cells; type: cell-based; conditions: for EC50: MUC1-fs total cytoplasm intensity, P cells, 48 hr incubation; for ECMax: MUC1-fs, DMSO = 0, JQ1 (250 nM) = −100% activity
Method: (§1) P cells were seeded 24 hr prior to compound treatment at a density of 12,000 cells/well in 384 well Cell Carrier Ultra plates (6057308, Perkin Elmer), pre-coated with 0.25 mg/mL Synthemax 11 SC Substrate (3535, Corning). Compounds were used at 5 doses (35, 3.5, 0.35, 0.035 and 0.0035 μM) for the primary screen and 10 doses (16, 5.6, 1.8, 0.6, 0.21, 0.07, 0.02, 0.008, 0.002 and 0.0008 μM) for the following screens. The compounds, in two replicates, were transferred from compound source plates to the cell plates using the HighRes Pin Tool. DMSO was used as a negative control and JQ1 (250 nM) (a bromodomain inhibitor) was chosen as a positive control, based on earlier studies showing its potent effect on reducing total MUC1 mRNA levels (data not shown). After 48 hr incubation, cells were fixed for 20 min in 4% PFA (Electron Microscopy Sciences) in PBS, washed twice, then permeabilized (10 min) with 0.5% Triton-X100 (X100-100MVL, Sigma-Aldrich) in PBS and washed once more. Cells were blocked for 10 min at RT with Blocking solution (100 mM Tris HCL pH8; l150 mM NaCL; 5 g/L Blocking Reagent [11096176001, Roche]), then incubated 90 min at RT with one of the following primary antibodies in Roche Blocking solution: 1:500, monoclonal Fab-A-V5H anti-MUC1-fs, AbD22655.2, Bio-Rad; 1:2000, monoclonal mouse anti-MUC1 (214D4), 05-652-KC, Millipore; 1:1000, monoclonal, Rabbit anti-GM130 (D6B1) XP, 12480, Cell signaling technology. The primary antibody cocktail was incubated at RT for 1.5 hr, followed by four PBS wash cycles. The secondary antibody cocktail contained four components that were all prepared at a 1:1000 dilution in the Roche blocking solution and consisted of Alexa Fluor® 488-conjugated AffiniPure F(ab′)2 Fragment Goat anti-Human IgG, 109-546-097, Jackson Immunoresearch; Alexa Fluor® 647-conjugated Goat anti-Rabbit IgG, A-21246, Thermo Fisher Scientific®; Alexa Fluor® 546 Goat anti-mouse IgG, A-21123, Thermo Fisher Scientific® and Hoechst 33342 stain (62249, Thermo Fisher Scientific®). The secondary antibody cocktail was incubated at RT for 45 min, followed by four PBS wash cycles. Finally, plates were sealed with a Plate Loc plate and stored in Liconic incubator at 10° C. until imaging. Following image analysis, three parameters were selected, i) MUC1-fs and ii) MUC1-wt total cytoplasm intensity (averaged per cell) and iii) cell number as was detected by Hoechst 33342 stained nuclei. The levels of MUC1-fs and MUC1-wt found following DMSO and JQ1 were defined as 0 and −100% activity, respectively. The values obtained for all compounds were normalized accordingly. Cell number was normalized to DMSO control.
(§2) The pure enantiomers were profiled in the high-content imaging assay for the ability to reduce the amount of FS MUC1 protein in the cytoplasm (Table 48) following the procedure of Example 4.

MUC1-wt = test: High-content imaging assay of MUC1-wt total cytoplasm intensity in P cells; type: cell-based; conditions: for EC50: MUC1-wt total cytoplasm intensity, P cells, 48 hr incubation; for WT ECMax: MUC1-wt, DMSO = 0, JQ1 (250 nM) = −100% activity
Method: as §1, §2

[1] = high-content imaging assay, procedure of Example 4

Row | Structure (SMILES) | EC50 (MUC1-fs) [µM] | ECMax (MUC1-fs) [%] | EC50 (MUC1-wt) [µM] | WT ECMax (MUC1-wt) [%] | IC50 (MUC1-fs; [1]) [µM] | IC50 (MUC1-fs; second pair of columns (c3-c4)) [µM] | FS MUC1 cytoplasm EMax (%) (MUC1-fs; [1]) | FS MUC1 cytoplasm EMax (%) (MUC1-fs; second pair of columns (c3-c4)) | reduction in wild-type MUC1 levels (MUC1-wt; [1])
1 | Cl.N[C@H]1[C@H]2CC[C@H](C2)[C@@H]1C1CC1 (single isomer, unassigned) [Compound 109-P2] | 0.52 | −74.31 | > 32 | −14.32 | – | – | – | – | –
2 | Cl.N[C@@H]1[C@@H]2CC[C@@H](C2)[C@H]1C1CCC1 (single isomer, unassigned) [Compound 113-P1] | > 32 | −13.24 | > 32 | −9.71 | – | – | – | – | –
3 | CC(C)C[C@@H]1[C@@H]2CC[C@@H](C2)[C@H]1N.Cl (single isomer, unassigned) [Compound 112-P2] | > 32 | 13.14 | > 32 | 7.52 | – | – | – | – | –
4 | Cl.N[C@H]1[C@H]2CC[C@H](C2)[C@@H]1C1CCCC1 (single isomer, unassigned) [Compound 116-P2] | > 32 | −16.96 | > 32 | −19.89 | – | – | – | – | –
5 | Cl.N[C@@H]1[C@@H]2CC[C@@H](C2)[C@H]1C1CCC1 (racemic) [Compound 113] | 0.478 | −46.53 | > 32 | 13.12 | – | – | – | – | –
6 | CC(C)[C@@H]1[C@H]2CC[C@H](C2)[C@H]1N.Cl (single isomer, unassigned) [BRD4780 Fr2, hydrochloride] | – | – | – | – | 0.175 | 12.6 | – | – | –
7 | CC(C)[C@H]1[C@@H]2CC[C@@H](C2)[C@@H]1N.Cl (single isomer, unassigned) [BRD4780 Fr1] | – | – | – | – | – | – | −42 | 113 | –
8 | CC(C)C[C@H]1[C@H]2CC[C@H](C2)[C@@H]1N.Cl (single isomer, unassigned) [Compound 112-P1] | > 32 | 26.46 | < 32 | 9.15 | – | – | – | – | –
9 | CC(C)[C@H]1[C@H]2CC[C@H](C2)[C@H]1N.Cl (racemic) [Compound 103, rac-3-endo-isopropylbicyclo[2.2.1]heptan-2-endo-amine hydrochloride] | 2.14 | −83.25 | > 32 | −13.31 | – | – | – | – | –
10 | CCC[C@H]1[C@H]2CC[C@H](C2)[C@@H]1N.Cl [Compound 108-P1] | 29.9 | −24.9 | > 32 | −12.05 | – | – | – | – | –
11 | C[C@@H]1[C@H]2CC[C@H](C2)[C@H]1N.Cl (single isomer, unassigned) [Compound 104-P1, (1R,2R,3R,4S)-3-methylbicyclo[2.2.1]heptan-2-amine hydrochloride] | 19.6 | – | > 32 | – | – | – | – | – | –
12 | CCC[C@H]1[C@@H]2CC[C@@H](C2)[C@@H]1N.Cl [Compound 107-P2] | > 32 | −9.6 | > 32 | 8.96 | – | – | – | – | –
13 | CC(C)C[C@H]1[C@@H]2CC[C@@H](C2)[C@@H]1N.Cl (single isomer, unassigned) [Compound 111-P2] | > 32 | −11.51 | > 32 | −9.06 | – | – | – | – | –
14 | Cl.N[C@H]1[C@@H]2CC[C@@H](C2)[C@@H]1C1CC1 (single isomer, unassigned) [Compound 110-P1] | – | −50.96 | – | −8.95 | – | – | – | – | –
15 | C[C@@H]1[C@H]2CC[C@H](C2)[C@H]1N.Cl (single isomer, unassigned) [Compound 104-P1] | – | −47.64 | – | −13.75 | – | – | – | – | –
16 | CC(C)[C@@H]1[C@@H]2CC[C@@H](C2)[C@H]1N.Cl [Compound 101] | 0.524 | −68.74 | 12.3 | 18.4 | – | – | – | – | –

Row | Structure (SMILES) | EC50 (MUC1-fs) [µM] | ECMax (MUC1-fs) [%] | EC50 (MUC1-wt) [µM] | WT ECMax (MUC1-wt) [%] | IC50 (MUC1-fs; [1]) [µM] | IC50 (MUC1-fs; second pair of columns (c3-c4)) [µM] | FS MUC1 cytoplasm EMax (%) (MUC1-fs; [1]) | FS MUC1 cytoplasm EMax (%) (MUC1-fs; second pair of columns (c3-c4)) | reduction in wild-type MUC1 levels (MUC1-wt; [1])
17 | Cl.N[C@@H]1[C@@H]2CC[C@@H](C2)[C@H]1c1ccccc1 (racemic) [Compound 120] | > 32 | −27.71 | > 32 | 15.88 | – | – | – | – | –
18 | Cl.N[C@@H]1[C@H]2CC[C@H](C2)[C@H]1C1CCCC1 (single isomer, unassigned) [Compound 117-P2] | > 32 | −15.88 | > 32 | −15.43 | – | – | – | – | –
19 | Cl.N[C@H]1[C@H]2CC[C@H](C2)[C@@H]1C1CCCCC1 (single isomer, unassigned) [Compound 118-P2] | > 32 | 0 | > 32 | 0 | – | – | – | – | –
20 | Cl.N[C@@H]1[C@@H]2CC[C@@H](C2)[C@H]1C1CCCC1 (single isomer, unassigned) [Compound 116-P1] | > 32 | −10.6 | > 32 | 18.63 | – | – | – | – | –
21 | Cl.N[C@H]1[C@@H]2CC[C@@H](C2)[C@@H]1C1CCC1 (single isomer, unassigned) [Compound 114-P1] | 29.9 | −28.1 | > 32 | 5.99 | – | – | – | – | –
22 | Cl.N[C@@H]1[C@H]2CC[C@H](C2)[C@H]1C1CC1 (single isomer, unassigned) [Compound 110-P2] | – | −47.09 | – | −12.31 | – | – | – | – | –
23 | CC(C)(C)[C@@H]1[C@H]2CC[C@H](C2)[C@H]1N.Cl (racemic) [Compound 115] | 0.295 | −79.02 | 12.3 | 71.79 | – | – | – | – | –
24 | Cl.N[C@H]1[C@H]2CC[C@H](C2)[C@@H]1c1ccccc1 (single isomer, unassigned) [Compound 120-P2] | > 32 | −24.61 | > 32 | −11.21 | – | – | – | – | –
25 | Cl.N[C@H]1[C@@H]2CC[C@@H](C2)[C@@H]1C1CCCCC1 (single isomer, unassigned) [Compound 119-P1] | > 32 | −14.14 | > 32 | −14.31 | – | – | – | – | –
26 | CC(C)[C@@H]1[C@H]2CC[C@H](C2)[C@H]1N.Cl (single isomer, unassigned) [BRD4780 Fr2] | – | – | – | – | – | – | −46 | 60 | –
27 | Cl.N[C@@H]1[C@@H]2CC[C@@H](C2)[C@H]1c1cccs1 (racemic) [Compound 122] | > 32 | −12.17 | > 32 | −10.53 | – | – | – | – | –
28 | Cl.N[C@H]1[C@@H]2CC[C@@H](C2)[C@@H]1C1CCC1 (racemic) [Compound 114-rac] | 12.9 | −44.74 | > 32 | 18.3 | – | – | – | – | –
29 | C[C@@H]1[C@H]2CC[C@H](C2)[C@H]1N.Cl (single isomer, unassigned) [Compound 104-P2, hydrochloride] | 4.5 | – | > 32 | – | – | – | – | – | –
30 | Cl.N[C@@H]1[C@@H]2CC[C@@H](C2)[C@H]1C1CC1 (single isomer, unassigned) [Compound 109-P1] | > 32 | −32.29 | > 32 | 9.06 | – | – | – | – | –
31 | CC(C)C1C2CCC(C2)C1N.Cl (racemic) [BRD4780, rac-3-exo-isopropylbicyclo[2.2.1]heptan-2-endo-amine hydrochloride, reference compound] | – | – | – | – | – | – | – | – | no observed reduction
32 | CC(C)[C@H]1[C@@H]2CC[C@@H](C2)[C@@H]1N.Cl (single isomer, unassigned) [BRD4780 Fr1, hydrochloride] | – | – | – | – | 0.156 | 9.2 | – | – | –
